Experimental data taken from ChEMBL document CHEMBL1140382, “11C-labeling of n-[4-[4-(2,3-dichlorophenyl)piperazin-1-yl]butyl]arylcarboxamide derivatives and evaluation as potential radioligands for PET imaging of dopamine D3 receptors” (J Med Chem, 2005).

Key:
D(2) dopamine receptor = D(2) dopamine receptor (Rattus norvegicus, UniProt P61169); assay: Binding affinity towards rat dopamine D2 receptor using [11C] radiotracer
D(4) dopamine receptor = target: T1, D(4) dopamine receptor (Rattus norvegicus, UniProt P30729); assay: Binding affinity for rat dopamine D4 receptor using [11C] radiotracer
T1 sequence (P30729 whole entry): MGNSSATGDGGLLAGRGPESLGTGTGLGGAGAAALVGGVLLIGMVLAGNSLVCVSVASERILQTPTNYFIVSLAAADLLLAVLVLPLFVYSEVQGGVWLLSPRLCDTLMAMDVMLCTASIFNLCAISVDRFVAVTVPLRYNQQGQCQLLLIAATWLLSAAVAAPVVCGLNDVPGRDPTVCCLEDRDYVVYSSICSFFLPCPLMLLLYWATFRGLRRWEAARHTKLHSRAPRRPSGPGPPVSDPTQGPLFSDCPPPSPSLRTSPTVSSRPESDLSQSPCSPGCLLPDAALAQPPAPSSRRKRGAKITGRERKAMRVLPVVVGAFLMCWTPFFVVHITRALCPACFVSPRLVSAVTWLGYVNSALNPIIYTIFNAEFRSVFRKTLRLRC

[1] = target: Sigma non-opioid intracellular receptor 1 (Rattus norvegicus, UniProt Q9R0C9); assay: Binding affinity for rat Opioid receptor sigma 1 using [11C] radiotracer
D(3) dopamine receptor = D(3) dopamine receptor (Rattus norvegicus, UniProt P19020); assay: Binding affinity for rat dopamine D3 receptor using [11C]GR-218,231
[2] = target: D(3) dopamine receptor (Rattus norvegicus) (UniProt P19020)
Sequence of D(3) dopamine receptor (Rattus norvegicus) (P19020 whole entry): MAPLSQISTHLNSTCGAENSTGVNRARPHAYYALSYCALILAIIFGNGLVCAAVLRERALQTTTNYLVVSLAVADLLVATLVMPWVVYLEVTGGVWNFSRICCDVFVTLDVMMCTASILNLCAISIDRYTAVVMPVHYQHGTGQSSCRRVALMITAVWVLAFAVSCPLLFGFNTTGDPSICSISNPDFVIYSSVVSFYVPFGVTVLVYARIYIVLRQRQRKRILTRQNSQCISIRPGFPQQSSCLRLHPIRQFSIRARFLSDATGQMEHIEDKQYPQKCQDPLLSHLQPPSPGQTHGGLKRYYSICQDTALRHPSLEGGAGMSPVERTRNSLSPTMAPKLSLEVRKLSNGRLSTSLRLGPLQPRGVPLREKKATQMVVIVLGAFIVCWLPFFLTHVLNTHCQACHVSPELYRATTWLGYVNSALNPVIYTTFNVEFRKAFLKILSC

Sequence of Sigma non-opioid intracellular receptor 1 (Q9R0C9 whole entry): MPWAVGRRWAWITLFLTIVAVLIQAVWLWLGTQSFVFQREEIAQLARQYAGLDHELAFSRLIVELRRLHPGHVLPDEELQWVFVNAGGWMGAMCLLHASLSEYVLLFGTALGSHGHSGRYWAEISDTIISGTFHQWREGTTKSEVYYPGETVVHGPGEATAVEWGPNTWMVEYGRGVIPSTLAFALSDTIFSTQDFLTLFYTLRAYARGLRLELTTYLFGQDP
Sequence of D(2) dopamine receptor (P61169 whole entry): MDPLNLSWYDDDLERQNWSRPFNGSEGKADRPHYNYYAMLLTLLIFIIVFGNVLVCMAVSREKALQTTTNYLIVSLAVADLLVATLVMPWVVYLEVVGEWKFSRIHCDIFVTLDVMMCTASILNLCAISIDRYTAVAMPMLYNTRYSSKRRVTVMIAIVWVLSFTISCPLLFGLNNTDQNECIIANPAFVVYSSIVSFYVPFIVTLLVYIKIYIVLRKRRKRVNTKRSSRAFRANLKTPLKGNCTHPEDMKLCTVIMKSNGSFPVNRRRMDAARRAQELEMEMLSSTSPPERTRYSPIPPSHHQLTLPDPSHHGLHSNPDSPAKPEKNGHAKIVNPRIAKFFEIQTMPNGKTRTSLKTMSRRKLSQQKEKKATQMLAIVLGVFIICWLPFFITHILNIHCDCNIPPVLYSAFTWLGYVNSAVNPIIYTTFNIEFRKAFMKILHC
Sequence of D(3) dopamine receptor (P19020 whole entry): as the sequence (P19020 whole entry) above

Compound: COc1c(C(=O)NCCCCN2CCN(c3cccc(Cl)c3Cl)CC2)ccc2ccccc12
- Ki (D(2) dopamine receptor): 720 nM
- Ki (D(4) dopamine receptor): 830 nM
- Ki [1]: 342 nM

Compound: COc1cc(Br)cc(C(=O)NCCCCN2CCN(c3cccc(Cl)c3Cl)CC2)c1OC
- Ki (D(3) dopamine receptor): 2 nM

Compound: COc1cccc2cc(C(=O)NCCCCN3CCN(c4cccc(Cl)c4Cl)CC3)oc12
- Ki (D(2) dopamine receptor): 720 nM
- Ki (D(4) dopamine receptor): 373 nM
- Ki [1]: 180 nM

Compound: CCCN(CCC)C1CCc2cc(CS(=O)(=O)c3ccc(OC)cc3)ccc2C1 (stereo not drawn)
- pKi [2]: 9
